Source: patent US20240109852A1, “Ferroptosis-HDAC Inhibitor Hybrid Anticancer Agents” (The University of Toledo, priority 2022, published 2024)
Where two headings read alike, the source gives them in different places. Each block holds one compound with its values, some of them ahead of it.

Columns and labels:
[1] = system: hTERT-immortalized RPE cells (retinal pigment epithelial cells); experiment: Cell viability assay (methylene blue staining), RPE normal cells; format: cell-based, human
Procedure: (§2) Cell viability was assessed using methylene blue staining: cells were plated at 5000/well in 96 well plates (n=3) respectively and treated the next day. Three days after treatment cells were fixed/stained in methylene blue saturated in 50% ethanol for 30 min at RT. Plates were washed with excess water to wash off extra dye.

[2] = system: NCI-H522 cells; experiment: Time-lapse microscopy of cell death in NCI-H522 cells; format: cell-based, human; details: for time from initiation of ferroptosis until most/all cells were dead: CETZOLE-1 20 μM (most cells), HY-1 5 μM (all cells); for time of initiation of ferroptosis after treatment: CETZOLE-1 20 μM, HY-1 5 μM
Procedure: For time lapse imaging, NCI-H522 cells were plated at ˜70% density and left overnight to adhere and pre-equilibrate to 10% CO2. The next day cells were treated with DMSO or inhibitors, and the flask was maintained sealed. Flasks were placed on a 37° C. heated stage on an inverted microscope. Images were captured every 12 min and for a total of 300 images using a ×40 microscope objective and an Olympus C740 digital camera controlled by AmScope software. Image analysis was done using Image J. For the Kaplan-Maier graphs at least 100 cells were counted and the event of cell death was measured on a time frame of either 1 h or 0.2 h.

[3] = system: SH-SY5Y cell line (human neuroblastoma); experiment: MTT cell viability assay on SH-SY5Y neuronal cells; format: cell-based; details: for effect on neuronal cells (neurotoxicity), SH-SY5Y viability: 0.5×IC50, 1×IC50, 2×IC50 of the corresponding control on H522
Procedure: Human neuroblastoma cells (SH-SY5Y) were grown on poly-D-lysine coated plates and cultured in DMEM/F12 medium (HyClone, Thermo Scientific) containing 10% fetal bovine serum and 1% penicillin-streptomycin. Cells were maintained in a 37° C. incubator with a 5% CO2 atmosphere. Cells were seeded at a density of 15,000 cells in 96 well plates for 36 hr before treatment of drugs. […] G4102) according to the manufacturer's instructions. Cells were treated with amide series analogs for 24 hrs. Briefly, the cells were incubated with MTT reagent for 2 h at 37° C. incubator. Then, the solubilization/stop solution was added to solubilize the formazan products, incubated for 1 hr, and absorbance at 570 was measured using micro-plate reader (SynergyH1, BioTek, USA). DMSO was used a vehicle control. The experimental data represent the means±SD (*P<0.05) of triplicates from three separate experiments. The statistical significance was determined by one-way ANOVA and significant differences P<0.05, P<0.01, P<0.001, and P<0.0001 are symbolized as *, **, ***, and ****, respectively.

[4] = system: PC-12 (pheochromocytoma) cells; experiment: MTT cytotoxicity on undifferentiated and differentiated PC-12 cells; format: cell-based; details: both non-differentiated and NGF-differentiated states
Procedure: Pheochromocytoma (PC-12) cells were grown on poly-D-lysine coated plates and cultured in DMEM/F12 medium (HyClone, Thermo Scientific) containing 5% fetal bovine serum, 5% horse serum, and 1% penicillin-streptomycin. Cells were maintained in a 37° C. incubator with a 5% CO2 atmosphere. Cells were seeded at a density of 15,000 cells per well in 96 well plates for 36 hr before treatment with the test compounds. The MTT assay was performed after 24 hr of treatment.
Pheochromocytoma (PC-12) cells were seeded on poly-D-lysine coated plates containing neuron differentiation medium (100 ng nerve growth factor, DMEM/F12, 5% fetal bovine serum, 5% horse serum, and 1% penicillin-streptomycin) and grown for 5 days to differentiate to neurons. Cells were maintained in a 37° C. incubator with a 5% CO2 atmosphere. Cells were trypsinized, and seeded at a density of 15,000 cells/well in 96 well plates with neuron differentiation medium for 36 hr before treatment with the test compounds. The MTT assay was performed after 24 hr of treatment.

[5] = system: NCI-60 human tumor cell lines; experiment: NCI-60 five dose assay, whole panel; format: cell-based
[6] = system: WI-38 cells (normal human lung fibroblasts); experiment: Cell viability assay (methylene blue staining), WI-38 normal cells; format: cell-based; details: concentration of therapeutic relevance (2 μM), mesenchymal system
Procedure: as §2

[7] = system: lipid peroxides in NCI-H522 cells; experiment: C11-BODIPY lipid peroxidation assay (flow cytometry); format: cell-based, human; details: NCI-H522, 10 μM, within 6 hours of treatment
Procedure: NCI-H522 cells (˜70% density) were plated on 7 cm dishes and let overnight to adhere. […] After 6 h, cells were washed with 1×PBS and collected by trypsinization and centrifugation. The cells were washed once with 1×PBS and resuspended in PBS containing 2% FBS. Cells were analyzed using a BD LSR Fortessa FACScanner and FlowJo software. For each sample 20×10^3 cells were analyzed.

[8] = system: NCI-60 human tumor cell lines; experiment: NCI-60 one dose assay, whole panel; format: cell-based; details: compared to other hybrids, HDAC controls and SAHA
[9] = system: RPMI-8226 (leukemia cell line); experiment: NCI-60 five dose assay, RPMI-8226; format: cell-based; details: Homo sapiens, RPMI-8226, read-out: GI50, RPMI-8226
[10] = system: NCI-H23 (NSC lung cancer cell line); experiment: NCI-60 five dose assay, NCI-H23; format: cell-based; details: Homo sapiens
[11] = system: SF-539 cell line (CNS cancer); experiment: NCI-60 five dose assay, SF-539; format: cell-based; details: Homo sapiens
[12] = system: LOXIMVI (melanoma cell line); experiment: NCI-60 five dose assay, LOXIMVI; format: cell-based; details: Homo sapiens, LOX IMVI, read-out: GI50, LOXIMVI
[13] = system: IGROV-1 (ovarian cancer cell line); experiment: NCI-60 five dose assay, IGROV-1; format: cell-based; details: Homo sapiens
[14] = system: PC-3 (prostate cancer cell line); experiment: NCI-60 five dose assay, PC-3; format: cell-based; details: Homo sapiens, read-out: GI50, PC-3
[15] = system: DU-145 (prostate cancer cell line); experiment: NCI-60 five dose assay, DU-145; format: cell-based; details: Homo sapiens
[16] = system: NCI-H522 human lung cancer cells; experiment: Cell viability assay (methylene blue staining), NCI-H522; format: cell-based; details: NCI-H522, 72 h, read-out: IC50 ± SD (n = 3) on NCI-H522 cell line
Procedure: as §2

[17] = system: HCT116 human colorectal carcinoma cells; experiment: Cell viability assay (methylene blue staining), HCT-116; format: cell-based; details: HCT-116, 72 h, read-out: IC50 ± SD (n = 3) on HCT-116 cell line
Procedure: as §2

[18] = system: acetyl-H3 (K9) (histones, HDAC class I substrate); experiment: Western blot, acetyl-H3 (K9) in NCI-H522 cells; format: cell-based, human; details: NCI-H522, concentration of 5 μM
Excerpt: (§1) Bound antibodies were detected using enhanced chemiluminescence (Biorad).

[19] = system: acetyl tubulin (class II, HDAC-6 substrate); experiment: Western blot, acetyl tubulin in NCI-H522 cells; format: cell-based, human; details: NCI-H522, concentration of 5 μM
Excerpt: as §1

[20] = system: HS578 (breast cancer cell line); experiment: NCI-60 five dose assay, HS578; format: cell-based; details: Homo sapiens
[21] = system: NCI-H23 cell line (NSC-Lung cancer); details: one dose; SAHA data from the public data base of NCI; cited from earlier work
[22] = system: DU-145 cells (prostate cancer); details: one dose; SAHA data from the public data base of NCI; cited from earlier work

Structure (SMILES): C#Cc1nc(C2=C(C)C(O)CC2)cs1 (centres unmarked) [CETZOLE-1, reference compound]
IC50 ([1]; normal RPE epithelial cells, FBS media (FIGS. 11A, 11C), read-out: IC50 on RPE (selectivity study)): > 30000 nM
time from initiation of ferroptosis until most/all cells were dead [2]: ≤ 8 h
time of initiation of ferroptosis after treatment [2]: approximately 12 hours

Structure (SMILES): C#Cc1nc(C(=O)NCCCCCCC(=O)OC)cs1 [FC-1, Methyl 7-(2-ethynylthiazole-4-carboxamido)heptanoate]
effect on neuronal cells (neurotoxicity), SH-SY5Y viability [3]: significant neurotoxicity
sensitivity of differentiated and undifferentiated PC-12 cells [4]: resistant

Structure (SMILES): O=C(CCCCCCNC(=O)c1csc(Br)n1)NO [HC-1, 2-Bromo-N-(7-(hydroxyamino)-7-oxoheptyl)thiazole-4-carboxamide]
effect on neuronal cells (neurotoxicity), SH-SY5Y viability [3]: very mild toxicity
GI50 ([5]; read-out: average GI50): 1510 nM

Structure (SMILES): C#Cc1nc(C(=O)NCCCCCCC(=O)NO)cs1 [HY-1, 2-Ethynyl-N-(7-(hydroxyamino)-7-oxoheptyl)thiazole-4-carboxamide]
toxic effects on normal cells (WI-38) [6]: no toxic effects on normal cells
toxicity on normal cells (RPE) ([1]; concentration of therapeutic relevance (2 μM), epithelial system): no toxicity was observed on the normal cells
neurotoxic effects, SH-SY5Y viability ([3]; concentrations of therapeutic relevance (2.32 μM)): no neurotoxic effects
sensitivity of differentiated and undifferentiated PC-12 cells [4]: behaved like the HDAC control HC-1
lipid peroxide levels (oxidized C11-BODIPY 581/591) [7]: increased levels of lipid peroxides
time from initiation of ferroptosis until most/all cells were dead [2]: ≤ 2 h
time of initiation of ferroptosis after treatment [2]: 8 h
cytotoxicity profile in the NCI-60 screen [8]: best cytotoxicity profile
GI50 ([5]; read-out: GI50 values as low as): ≥ 20 nM
GI50 ([5]; read-out: average GI50): 850 nM
GI50 [9]: 350 nM
GI50 ([10]; NCI-H23, read-out: GI50, NCI-H23): 780 nM
GI50 ([11]; SF-539, read-out: GI50, SF-539): 1000 nM
GI50 [12]: 20 nM
GI50 ([13]; IGROV-1, read-out: GI50, IGROV-1): 570 nM
GI50 [14]: 2000 nM
GI50 ([15]; DU-145, read-out: GI50, DU-145): 360 nM

IC50 [16]: 1070 nM
IC50 [17]: 1190 nM
Structure (SMILES): C#Cc1nc(/C=C\CCCCCC(=O)NO)cs1 [HY-2, (Z)-8-(2-ethynylthiazol-4-yl)-N-hydroxyoct-7-enamide]
GI50 ([5]; read-out: average GI50): 2180 nM

IC50 [16]: 1590 nM
IC50 [17]: 4960 nM
Structure (SMILES): C#Cc1nc(/C=C/CCCCCC(=O)NO)cs1 [HY-3, (E)-8-(2-ethynylthiazol-4-yl)-N-hydroxyoct-7-enamide]
GI50 ([5]; read-out: average GI50): 3390 nM

Structure (SMILES): C#Cc1nc(/C=C/C=C/C(=O)NO)cs1 [HY-4, (2E,4E)-5-(2-ethynylthiazol-4-yl)-N-hydroxypenta-2,4-dienamide]
effect on neuronal cells (neurotoxicity), SH-SY5Y viability [3]: not showing attenuated neurotoxicity
cytotoxicity profile in the NCI-60 screen [8]: worst cytotoxicity profile

Structure (SMILES): C#Cc1nc(/C=C/C(=O)NO)cs1 [HY-5, (E)-3-(2-ethynylthiazol-4-yl)-N-hydroxyacrylamide]
H3 hyperacetylation at 5 μM [18]: did not show any H3 hyperacetylation
tubulin hyperacetylation at 5 μM [19]: tubulin hyperacetylation
GI50 ([5]; read-out: average GI50): 2470 nM

Structure (SMILES): COC(=O)CCCCCCNC(=O)c1csc(Br)n1 [NC-1, Methyl 7-(2-bromothiazole-4-carboxamido)heptanoate]
effect on neuronal cells (neurotoxicity), SH-SY5Y viability [3]: no effect

Structure (SMILES): O=C(CCCCCCC(=O)Nc1ccccc1)NO [SAHA]
time after treatment at which cells were still alive ([2]; SAHA 5 μM): ≥ 60 h
GI50 ([5]; five dose assay, mean over approximately sixty cell lines, read-out: average GI50): 1210 nM
GI50 ([10]; NCI-H23, five dose assay, read-out: GI50, NCI-H23): 2000 nM
GI50 ([11]; SF-539, five dose assay, read-out: GI50, SF-539): 2000 nM
GI50 ([12]; five dose assay): 1250 nM
GI50 ([13]; IGROV-1, five dose assay, read-out: GI50, IGROV-1): 2000 nM
GI50 ([14]; five dose assay): 1580 nM
GI50 ([15]; DU-145, five dose assay, read-out: GI50, DU-145): 1250 nM
GI50 [20]: 2000 nM
Growth %, NCI-H23 (NCI public data base) [21]: 3.30%
Growth %, DU-145 (NCI public data base) [22]: 3.5%
